Assay [1] concerns Gq signalling via endogenously expressed M3 receptor. Briefly: Calcium mobilization assay, carbachol-induced (M3 receptor) in 1321N1 astrocytoma cells. The class given is cell-based, human. The settings on record: Homo sapiens, versus Carbachol (EC80), M3 receptor, read-out: pIC50, inhibition of calcium mobilization (converted). The method, then:
The functional activity of YM, FR, and Ebselen as Gq protein inhibitors was determined by assessing their ability to antagonize ADP‐induced calcium mobilization in 1321N1 astrocytoma cells stably transfected with the human P2Y1 receptor, which is a Gq‐coupled receptor. In addition, the compounds' inhibitory effects on Carbachol‐induced calcium mobilization were studied in the same cell line, which endogenously express the Gq‐coupled muscarinic M3 ACh receptor. The assays were performed according to a previously described procedure (Rafehi et al., 2017) using a NOVOstar microplate reader (BMG Labtech, Offenburg, Germany).

For assay [2], the target named is T1, human Gα14 (Homo sapiens, UniProt O95837).
T1 construct: expressed in transfected cells; membrane preparations
T1 sequence (O95837 1-355): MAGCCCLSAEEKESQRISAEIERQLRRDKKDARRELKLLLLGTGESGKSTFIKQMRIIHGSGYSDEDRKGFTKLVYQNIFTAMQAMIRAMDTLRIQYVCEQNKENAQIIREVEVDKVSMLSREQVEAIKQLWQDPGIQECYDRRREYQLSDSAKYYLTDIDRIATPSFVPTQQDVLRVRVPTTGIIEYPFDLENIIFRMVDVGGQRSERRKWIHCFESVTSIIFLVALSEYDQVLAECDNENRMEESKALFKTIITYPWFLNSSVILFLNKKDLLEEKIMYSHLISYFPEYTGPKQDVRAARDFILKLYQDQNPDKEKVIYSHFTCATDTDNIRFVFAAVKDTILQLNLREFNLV
Briefly: Competition binding at membranes of HEK-CRISPR-Cas9-Gαq-KO cells expressing Gα14. The method, then: (§1) cDNAs encoding for the α‐subunits of the human G11, G14, G15 and mouse Gq guanine nucleotide‐binding proteins in a pcDNA3.1(+) vector were obtained from E. Kostenis. CRISPR/Cas9‐Gαq‐knockout (KO) HEK293 cells were from M. Yamaguchi. The protein sequences of the human and mouse Gαq proteins differ only by one amino acid in position 171 (alanine in human and serine in mouse). […]. After 16 hr, 3 ml of DMEM containing 10% FBS, 1% of a penicillin/streptomycin solution (final concentrations: penicillin = 100 U·ml^−1, streptomycin = 0.1 mg·ml^−1), and sodium butyrate (5 mM) was added to the packaging cells. They were kept at 32°C and 5% CO2 for 48 hr, during which the viral vectors containing the receptor sequence were produced and released into the surrounding medium. These were harvested, filtered ([…] filter pore diameter), and added to HEK293 cells that had previously been modified via CRISPR/Cas9 genome editing to lack Gαq expression. Polybrene solution (6 μl, 4 mg·ml^−1 in H2O, filtered) was added. After 2.5 hr, the virus‐containing medium was discarded, and DMEM supplemented with 10% FBS and 1% of a penicillin/streptomycin solution (final concentrations: penicillin = 100 U·ml^−1, streptomycin = 0.1 mg·ml^−1) was given to the cells. These were incubated for 2 days, followed by selection of successfully transfected cells with geneticin resistance by adding G418 (200 μg·ml^−1) to the medium. The cells were cultured in these media at 37°C and 10% CO2 until membrane preparations were generated.
(§2) Recombinant HEK cells were cultured to 70% of confluence. The culture medium was discarded, and cells were washed once with approximately 5 ml of PBS. Dishes were stored at −20°C until further use. After defrosting, cells were detached with a rubber scraper after adding 5‐mM Tris–HCl, 2‐mM EDTA, pH 7.4. The collected cell suspension was homogenized using an Ultra‐Turrax® for 1 min at a speed level of 4. The cell suspension was transferred into tubes and centrifuged for 10 min at 1,000 g, 4°C. The pellet (P1) was discarded, and the supernatant was centrifuged for 45 min at 48,400 g, 4°C. The resulting supernatant was discarded, and the pellet (P2) was resuspended in 50‐mM Tris–HCl, pH 7.4, and centrifuged again for 45 min at 48,400 g, 4°C. This step was repeated once again, and the suspension was subsequently homogenized using an Ultra‐Turrax® for 1 min at a speed level of 4 (IKA Laborechnik), transferred into cryovials, and stored at −80°C (for up to several months). […]
(§3) The experiments were performed in 50‐mM Tris–HCl buffer, pH 7.4. […] Non‐specific binding was determined in the presence of 5‐μM FR. […] Luma Safe® scintillation cocktail (2.5 ml) was added, and after 6 hr of incubation, the samples were counted for 1 min each, using a liquid scintillation counter (counting efficiency 53%). […]

Assay [3] concerns the target T2, human Gα11 (Homo sapiens, UniProt P29992).
T2 construct: expressed in transfected cells; membrane preparations
T2 sequence (P29992 1-359): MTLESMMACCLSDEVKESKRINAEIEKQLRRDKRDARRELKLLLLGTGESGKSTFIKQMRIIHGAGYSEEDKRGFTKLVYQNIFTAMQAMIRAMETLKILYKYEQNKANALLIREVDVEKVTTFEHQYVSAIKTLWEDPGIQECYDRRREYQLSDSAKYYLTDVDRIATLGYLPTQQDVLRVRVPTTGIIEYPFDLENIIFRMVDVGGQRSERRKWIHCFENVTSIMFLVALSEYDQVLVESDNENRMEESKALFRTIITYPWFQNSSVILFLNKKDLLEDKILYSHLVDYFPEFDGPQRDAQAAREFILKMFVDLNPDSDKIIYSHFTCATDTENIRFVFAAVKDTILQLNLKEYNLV
Put plainly: Competition binding at membranes of HEK-CRISPR-Cas9-Gαq-KO cells expressing Gα11. The protocol: as §1, §2, §3

Where two headings read alike, the source gives them in different places. *1 amine or outer side, *2 acyl side, *3 side chain or, on linkers, in order; H or OH if unused. Where a SMILES comes first, the peptide text is derived from it. Bridges are numbered along the chain shown (N, C = ends). [ ]: non-standard residue; d: D form. The star is where a group is joined. Leu(3R-O(AcLeu(3R-OH))) = CC(=O)N[C@H](C(=O)O[C@H](C(C)C)[C@H](N)C(=O)O)[C@H](O)C(C)C; Leu(3R-OH,Nα-propionyl) = CCC(=O)N[C@H](C(=O)*)[C@H](O)C(C)C; X1 = CC(C)[C@@H](O[*:3])[C@H](N[*:1])C(=O)[*:2]; NMeT = CN[C@H](C(=O)O)[C@@H](C)O; dPhLac = O=C(O)[C@H](O)Cc1ccccc1; NMeA = CN[C@@H](C)C(=O)O; NMeDha = C=C(NC)C(=O)O

On to `C=C1C(=O)N[C@@H](C)C(=O)N(C)[C@@H](C)C(=O)N[C@@H]([C@H](OC(=O)[C@@H](NC(=O)CC)[C@H](O)C(C)C)C(C)C)C(=O)N(C)[C@@H]([C@@H](C)OC)C(=O)O[C@H](C(C)C)[C@H](NC(C)=O)C(=O)O[C@H](Cc2ccccc2)C(=O)N1C` [FR, FR900359] (Ac-[X1][dPhLac][NMeDha]A[NMeA][X1](Leu(3R-OH,Nα-propionyl))[NMeT](Me); ester 1-C), for which the IC50 in assay [1] was 0.741 nM; in assay [2], 10 nM; in assay [3], 10.5 nM. Besides, the “Pseudo-Bmax ± SD” value was found to be 4.37 ± 0.71 pmol/mg in assay [2] (FR versus [³H]PSB-15900 (5 nM), 37°C, G14) and 6.23 ± 1.39 pmol/mg in assay [3] (FR versus [³H]PSB-15900 (5 nM), 37°C, G11).
Regarding `C=C1C(=O)N[C@@H](C)C(=O)N(C)[C@@H](C)C(=O)N[C@@H]([C@H](OC(=O)[C@@H](NC(C)=O)[C@H](O)C(C)C)C(C)C)C(=O)N(C)[C@@H]([C@@H](C)OC)C(=O)O[C@H](C)[C@H](NC(C)=O)C(=O)O[C@H](Cc2ccccc2)C(=O)N1C` [YM, YM‐254890] (Ac-T[dPhLac][NMeDha]A[NMeA][Leu(3R-O(AcLeu(3R-OH)))][NMeT](Me); ester 1-C), the IC50 in assay [1] was 0.891 nM; in assay [2] (YM versus [³H]PSB-16254 (5 nM), 37°C, G14, read-out: pIC50 ± SD (converted)) it was 6.61 nM; in assay [3] (YM versus [³H]PSB-16254 (5 nM), 37°C, G11, read-out: pIC50 ± SD (converted)), 8.71 nM. The “Pseudo-Bmax ± SD” value in assay [2] (YM versus [³H]PSB-16254 (5 nM), 37°C, G14) is given as 3.18 ± 0.48 pmol/mg; in assay [3] (YM versus [³H]PSB-16254 (5 nM), 37°C, G11), 6.23 ± 2.92 pmol/mg.

These data come from article PMC7070167, “Cell‐permeable high‐affinity tracers for Gq proteins provide structural insights, reveal distinct binding kinetics and identify small molecule inhibitors” (British Journal of Pharmacology, 2020).
